{"source": "patent US20140234433A1", "about": "“Topical Composition for Stimulating Epidermis and Dermis Layers of the Skin” (priority 2013, published 2014)", "origin": "cited, not measured here", "test_system": "facial skin"}
{"smiles": "CC1=C(/C=C/C(C)=C/C=C/C(C)=C/C(=O)O)C(C)(C)CCC1", "note": "[tretinoin]", "values": [{"measurement": "histological characteristics", "setting": "0.001% dosage", "value": "same histological characteristics as the inactive base material"}, {"measurement": "histological response", "setting": "0.01% and 0.05%", "value": "increased response with an increase in tretinoin concentrations"}, {"measurement": "epidermal thickness", "setting": "24 weeks", "value": "increase"}, {"measurement": "findings in the dermis", "setting": "24 weeks", "value": "no positive findings"}, {"measurement": "melanocytes", "setting": "24 weeks", "value": "decrease"}, {"measurement": "stratum corneum", "setting": "24 weeks", "value": "stratum corneum compactness"}, {"measurement": "granular layer thickness", "setting": "24 weeks, 1 layer to 2-3 layers", "value": "increase"}, {"measurement": "dermal changes", "setting": "48 weeks of treatment", "value": "limited"}, {"measurement": "subjects showing erythema, scaling and peeling, and reporting stinging", "setting": "average of the studies", "value": "approximately 80%"}, {"measurement": "dermal findings on continued use", "setting": "continued use up to 4 years", "value": "decrease in elastin and perivascular inflammation"}]}
